Data from patent publication US20090097026A1, “COLOR MEASUREMENTS OF RECONSTITUTED TIGECYCLINE AND DEGRADANT THEREOF” (Wyeth, priority 2007, published 2009).

What was measured:
[1] = Color value of reconstituted tigecycline and tigecycline API spiked with Compound I; type: physicochemical; details: spiked into reconstituted tigecycline and tigecycline API; visual observation
Description: The spiking concentrations required to produce a clear color change in tigecycline (tigecycline for injection 50 mg/vial (lactose formulation)) was characterized using both a Hunterlab UltraScan XE color spectrophotometer and a quantitative HPLC method. The threshold for visual green color resulting from spiking with Compound I colored degradant was determined for each category of tigecycline samples. An excellent linear correlation (R>0.99) between the concentration of Compound I and the calculated color value is observed. The spiking of tigecycline with ca. 0.045 concentration Compound I results in observation of a slightly green color in the reconstituted tigecycline and tigecycline API. This green color is more pronounced at the higher Compound I concentration. Tables 1, 2, 3 and 4 summarize the calculated color values and HPLC results for tigecycline Registration stability batches (CR0040-50-01, CR0040-50-02, CR0040-50-03), validation stability batches (B41133, B41404, B41710) and API used in the validation stability batches (3000002665, 2000140691, 2000140693). As per the color methods employed the calculated color value is calculated from the measured CIEL*a*b* values using the equation below:
Calculated Color Value=2.19×L*+2.59×a*−0.48×b*
The samples were tested immediately after reconstitution according to the label directions (5.3 ml of 0.9% saline). […]

[2] = Stability / oxidative degradation observations; type: physicochemical; details: result in words
Description: Compound I was isolated from forced degradation samples of tigecycline and is unstable. This blue compound was characterized by LC-MS/MS and NMR as an iminoquinone derivative of tigecycline, an oxidative degradant with a positive ionic formula of C29H38N5O10 formed when tigecycline is exposed to air for twenty-four hours. A linear correlation (R>0.99) between the concentration of Compound I and the calculated color value was discovered. In substantially pure form, Compound I is useful as a test standard for determining the concentration of Compound I in a sample of Tigecycline. Compound I may be obtained in substantially pure form from the compound Tygecycline according to the following method: Tygecycline is degraded at room temperature by dissolving it in water open to air and stirring for a few hours until the solution changes color from yellow/orange to dark green. […]
Compound I was studied by NMR spectroscopy as well. […] A highly intense singlet peak at δH 3.59 was assigned to methyl protons of the C-7 dimethyl amino group, and their associated carbons were detected at δC 47.1 in the HSQC spectrum. […]

| concentration of Compound I that results in a slightly green color [1] | stability [2] | Compound |
| --- | --- | --- |
| ca. 0.045 |  | CN(C)c1c(O)c(C(N)=O)c(O)c(O)c1C[C@H]1C(C(=O)O)=C(O)C2=C(C(=[N+](C)C)C=C(NC(=O)CNC(C)(C)C)C2=O)[C@@H]1O [Compound I] |
|  | susceptible to oxidative degradation | CN(C)c1cc(NC(=O)CNC(C)(C)C)c(O)c2c1C[C@H]1C[C@H]3[C@H](N(C)C)C(O)=C(C(N)=O)C(=O)[C@@]3(O)C(O)=C1C2=O [tigecycline] |
